Assay results as given in patent publication US20140179794A1, “LEVOMILNACIPRAN-BASED DRUG FOR FUNCTIONAL RECOVERY AFTER ACUTE NEUROLOGICAL EVENTS” (PIERRE FABRE MEDICAMENT, priority 2011, published 2014).

Assay: Binding to the recombinant human alpha1 receptor (prazosin [3H], CHO cell membranes)
Source text: The bound fraction was separated by filtration and washing in cooled TRIS+NaCl+KCl buffer. […] The bound fraction was separated by filtration and washing in cooled TRIS+NaCl+KCl buffer. […] The bound fraction was separated by filtration and washing in cooled TRIS buffer.

CCN(CC)C(=O)[C@@]1(c2ccccc2)C[C@H]1CN [levomilnacipran]
Ki: 110 µM

CCN(CC)C(=O)C1(c2ccccc2)CC1CN (centres unmarked) [dextromilnacipran]
Ki: 3.4 µM
